Laboratory results: patent publication US10450317B2, “Notch pathway signaling inhibitor compounds” (Eli Lilly and Company, priority 2015, dated 2019)
Marks after values point to notes of the source that are not given here.

Legend:
Assay type in all cases: cell-based, mice
[1] = system: hair cell generation markers Atoh1, Pou4f3, Myo7a in organ of Corti explants; experiment: Organ of Corti explant assay, hair cell marker gene expression by qRT-PCR; conditions: 1 μM, fold-induction relative to negative control, ± SEM
Description: Generally, organ of Corti organotypic explant culture is carried out on Day 0 according to the method described in Parker et al., Journal of Visualized Experiments, 2010, (36), e1685. Explant culture is carried out for 4-7 days at which point the culture is either prepared for cellular lysis for qRT-PCR, or tissue fixation for immunohistochemistry.
(§1) The bulla and surrounding tissue from the petrous portion of the temporal bone are removed from 1 to 4 day-old postnatal mice (transgenic strain: Atoh1-driven nGFP; Lumpkin E A, et al., Gene Expr Patterns, 2003, (36):389-95) of both sexes. Organs of Corti are dissected in Hanks solution, the spiral ligament is removed and the explants are placed on cover slips coated with poly-L-ornithine (0.01%, Sigma) and laminin ([…], Becton Dickinson) to obtain a preparation with a flat cochlear surface. Each cochlear explant is then placed in a single well of a 24 well plate (Falcon) and cultured in DMEM (Invitrogen) with 5% fetal bovine serum, 5% horse serum, and penicillin-streptomycin (LifeTechnologies). Experimental compounds are added with medium on Day 0 and replaced every 2-3 days. All cultures are maintained in a 5% CO2 humidified incubator at 37° C.
RNA Extraction is carried out by lysing the explant tissue with 350 μl RLT Plus buffer (Qiagen) per well, and total RNA is purified by RNeasy® Plus Mini Kit (Qiagen). cDNA synthesis is carried out with the SuperScript® III First-Strand Synthesis System (LifeTechnologies) using random hexamers. To quantify the induction of hair cell marker expression, qPCR is performed with TaqMan Gene Expression Master Mix (LifeTechnologies, 4369016) and probes to detect genes of interest (e.g. […]; Assay ID Mm00476035_s1, Pou4f3; Assay ID Mm04213795_s1 and Myo7a; Assay ID Mm01274015_m1, LifeTechnologies) and an endogenous control gene, Tbp (Assay ID Mm00446971_m1, LifeTechnologies). Relative gene expression between treatment groups is analyzed using the ΔΔCT method and replicate measurements are averaged. Experiments are carried out in triplicate, at a minimum, and reported as a grand mean.
Data (±SEM) represent the fold-induction in gene expression relative to negative control-treated samples.

[2] = system: outer hair cells in organ of Corti explants; experiment: Organ of Corti explant assay, immuno-staining and count of outer hair cells; conditions: explants cultured four days at 1 μM; relative to negative control-treated samples
Description: as §1
Following the explant culture, tissues are fixed in the 24 well plate with 200 μl Cytofix/Cytoperm (BD) for 30 min, rinsed with PBS containing TritonX100 (PBST), and stained with 200 μl of primary antibody solution, consisting of 4% normal donkey serum in PBST with goat anti-GFP (1:2500; AbCAM, ab5450) and rabbit anti-myosinVIIa (1:1000; Proteus Bioscience #25-6790) for 1 hour. […] Blinded cell counts are measured in five separate experiments. […]

[3] = system: hair cell markers Atoh1, Pou4f3, Myo7A in gentamicin-damaged organ of Corti explants; experiment: Organ of Corti explant, gene expression analysis after ototoxic (gentamicin) damage; conditions: 5 μM after gentamicin (100 μM) damage, n = 11
Description: A variation of the organ of Corti organotypic explant culture is used to model hair cell regeneration in response to subsequent compound treatment after ototoxic damage. This damage model is carried out according to the method described in Korrapati et al., PLOSOne, 2013, 8(8), e73276 where a 95% reduction in mid-apical hair cells was reported. On Day 0, to damage and selectively kill hair cells within the organ of Corti explant, aminoglycoside treatment (gentamicin (100 μM)) is added for 18-24 hours. On Day 1, gentamicin is removed and treatment with Compound 1, Isomer 2 and Compound 2, Isomer 2 at 5 μM began. Explant culture continues for 4 days total at which point the culture is prepared for the qRT-PCR protocol described above. Visible confirmation of gentamicin-induced damage is easily observed between cultures treated with negative control compounds. However, quantitative measurement for the response to Compound 1, Isomer 2 and Compound 2, Isomer 2 treatment following ototoxic damage obtained by qRT-PCR measured increases in gene expression for prosensory hair cell markers Atoh1 and Pou4f3 and the hair cell marker Myo7A.
Data represent the percent increase in gene expression relative to negative control-treated samples with the gentamicin-induced hair cell damage. (*, significant difference from negative control, p<0.05)

| SMILES | RQ of Atoh1 expression [1] | RQ of Myo7a expression [1] | RQ of Pou4f3 expression [1] | Percent Increase in hair cells [2] | % Induction Over Control-treated Damaged Organ of Corti, Atoh1 (Mean ± SEM) [3] | % Induction Over Control-treated Damaged Organ of Corti, Myo7A (Mean ± SEM) [3] | % Induction Over Control-treated Damaged Organ of Corti, Pou4f3 (Mean ± SEM) [3] |
| --- | --- | --- | --- | --- | --- | --- | --- |
| C[C@H](NC(=O)CCC(F)(F)F)C(=O)NC1C(=O)C=C2N(CCC2(C)C)c2ncccc21 (single isomer, unassigned) [Compound 2, Isomer 2] | 3.10 ± 0.69 | 1.49 ± 0.22 | 1.65 ± 0.25 | 17.26 ± 1.2% | 169 ± 24; <0.05* % | 52 ± 15; not signif. % | 28 ± 11; 0.0633% |
| COc1ccc2c(c1)N1CCC(C)(C)C1=CC(=O)C2NC(=O)[C@H](C)NC(=O)CCC(F)(F)F (single isomer, unassigned) [Compound 1, Isomer 2] | 3.72 ± 0.54 | 1.73 ± 0.33 | 2.04 ± 0.35 | 14.15 ± 1.9% | 242 ± 16; % | 102 ± 18; 0.0522% | 114 ± 25; <0.05* % |
